System: 898857-211-R-J1-PDC complex spheroids, growth % test/control
Experiment: Anticancer human tumor 898857-211-R-J1-PDC patient-derived melanoma cell line growth inhibition [RAS]
Conditions: for viability, T/C: stronger effect = lower value
Outline: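 Tumour cells grown as complex spheroids with HUVEC endothelial cells and mesenchymal stem cells, treated with RAS pathway inhibitor combinations. Each agent spans half-log steps from near clinical Cmax, or 10 microM where Cmax is unknown.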

[1] = curve of first compound, second compound 0.0316 µM
[2] = curve of first compound, second compound 0.1 µM
[3] = curve of first compound, second compound 0.316 µM
[4] = curve of first compound, second compound 1 µM
[5] = second compound 0.0316 µM, first compound 0.0316 µM
[6] = second compound 0.0316 µM, first compound 0.1 µM
[7] = second compound 0.0316 µM, first compound 0.316 µM
[8] = second compound 0.0316 µM, first compound 1 µM
[9] = second compound 0.0316 µM, first compound 3.16 µM
[10] = second compound 0.0316 µM, first compound 10 µM
[11] = second compound 0.1 µM, first compound 0.0316 µM
[12] = second compound 0.1 µM, first compound 0.1 µM
[13] = second compound 0.1 µM, first compound 0.316 µM
[14] = second compound 0.1 µM, first compound 1 µM
[15] = second compound 0.1 µM, first compound 3.16 µM
[16] = second compound 0.1 µM, first compound 10 µM
[17] = second compound 0.316 µM, first compound 0.0316 µM
[18] = second compound 0.316 µM, first compound 0.1 µM
[19] = second compound 0.316 µM, first compound 0.316 µM
[20] = second compound 0.316 µM, first compound 1 µM
[21] = second compound 0.316 µM, first compound 3.16 µM
[22] = second compound 0.316 µM, first compound 10 µM
[23] = second compound 1 µM, first compound 0.0316 µM
[24] = second compound 1 µM, first compound 0.1 µM
[25] = second compound 1 µM, first compound 0.316 µM
[26] = second compound 1 µM, first compound 1 µM
[27] = second compound 1 µM, first compound 3.16 µM
[28] = second compound 1 µM, first compound 10 µM
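Further: spheroids exposed to compound for seven days before readout.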
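Wherever viability, T/C is given: 100% = DMSO vehicle control wells.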

## CC(=O)OC12COC1CC(O)C1(C)C(=O)C(O)C3=C(C)C(OC(=O)C(O)C(NC(=O)OC(C)(C)C)c4ccccc4)CC(O)(C(OC(=O)c4ccccc4)C21)C3(C)C (stereo unspecified) + C=CC(=O)N1CCN(c2nc(OCC3CCCN3C)nc3c(F)c(-c4nc(N)cc(C)c4C(F)(F)F)c(Cl)cc23)C(C)C1
Curve of first compound, second compound 0.00316 µM
  IC50: < 31.6 nM
Curve of first compound, second compound 0.01 µM
  IC50: < 31.6 nM
[1]
  IC50: < 31.6 nM
[2]
  IC50: < 31.6 nM
[3]
  IC50: < 31.6 nM
[4]
  IC50: < 31.6 nM
Second compound 0.00316 µM, first compound 0.0316 µM
  viability, T/C: 12.3%
Second compound 0.00316 µM, first compound 0.1 µM
  viability, T/C: 15.6%
Second compound 0.00316 µM, first compound 0.316 µM
  viability, T/C: 14.2%
Second compound 0.00316 µM, first compound 1 µM
  viability, T/C: 15.5%
Second compound 0.00316 µM, first compound 3.16 µM
  viability, T/C: 21.2%
Second compound 0.00316 µM, first compound 10 µM
  viability, T/C: 20.4%
Second compound 0.01 µM, first compound 0.0316 µM
  viability, T/C: 12%
Second compound 0.01 µM, first compound 0.1 µM
  viability, T/C: 13.7%
Second compound 0.01 µM, first compound 0.316 µM
  viability, T/C: 10.5%
Second compound 0.01 µM, first compound 1 µM
  viability, T/C: 14.5%
Second compound 0.01 µM, first compound 3.16 µM
  viability, T/C: 21.1%
Second compound 0.01 µM, first compound 10 µM
  viability, T/C: 19.6%
[5]
  viability, T/C: 13.1%
[6]
  viability, T/C: 13.1%
[7]
  viability, T/C: 14.3%
[8]
  viability, T/C: 14.8%
[9]
  viability, T/C: 24.2%
[10]
  viability, T/C: 20%
[11]
  viability, T/C: 11.5%
[12]
  viability, T/C: 15.1%
[13]
  viability, T/C: 14.3%
[14]
  viability, T/C: 16.5%
[15]
  viability, T/C: 16.2%
[16]
  viability, T/C: 19.9%
[17]
  viability, T/C: 12.8%
[18]
  viability, T/C: 15.5%
[19]
  viability, T/C: 14.2%
[20]
  viability, T/C: 16.9%
[21]
  viability, T/C: 14.7%
[22]
  viability, T/C: 21.1%
[23]
  viability, T/C: 12%
[24]
  viability, T/C: 13.3%
[25]
  viability, T/C: 12.1%
[26]
  viability, T/C: 15.4%
[27]
  viability, T/C: 19.4%
[28]
  viability, T/C: 15.2%

## CCC(CC)c1cc(NC2CCC(N)C2)n2nccc2n1 (stereo unspecified) + C#Cc1c(F)ccc2cc(O)cc(-c3ncc4c(N5CC6CCC(C5)N6)nc(OCC56CCCN5CC(F)C6)nc4c3F)c12
[1]
  IC50: 1070 nM
[2]
  IC50: 1210 nM
[3]
  IC50: 1240 nM
[4]
  IC50: 1260 nM
Curve of first compound, second compound 3.16 µM
  IC50: 1090 nM
Curve of first compound, second compound 10 µM
  IC50: 32 nM
[5]
  viability, T/C: 113%
[6]
  viability, T/C: 105%
[7]
  viability, T/C: 97.6%
[8]
  viability, T/C: 54.5%
[9]
  viability, T/C: 1.81%
[10]
  viability, T/C: 0.32%
[11]
  viability, T/C: 119%
[12]
  viability, T/C: 98.3%
[13]
  viability, T/C: 101%
[14]
  viability, T/C: 60%
[15]
  viability, T/C: 2.14%
[16]
  viability, T/C: 0.33%
[17]
  viability, T/C: 99.7%
[18]
  viability, T/C: 107%
[19]
  viability, T/C: 93.4%
[20]
  viability, T/C: 61.6%
[21]
  viability, T/C: 1.82%
[22]
  viability, T/C: 0.52%
[23]
  viability, T/C: 103%
[24]
  viability, T/C: 121%
[25]
  viability, T/C: 105%
[26]
  viability, T/C: 61.9%
[27]
  viability, T/C: 2.03%
[28]
  viability, T/C: 0.38%
Second compound 3.16 µM, first compound 0.0316 µM
  viability, T/C: 105%
Second compound 3.16 µM, first compound 0.1 µM
  viability, T/C: 97.1%
Second compound 3.16 µM, first compound 0.316 µM
  viability, T/C: 92.5%
Second compound 3.16 µM, first compound 1 µM
  viability, T/C: 55%
Second compound 3.16 µM, first compound 3.16 µM
  viability, T/C: 1.64%
Second compound 3.16 µM, first compound 10 µM
  viability, T/C: 0.34%
Second compound 10 µM, first compound 0.0316 µM
  viability, T/C: 52.9%
Second compound 10 µM, first compound 0.1 µM
  viability, T/C: 32.4%
Second compound 10 µM, first compound 0.316 µM
  viability, T/C: 30%
Second compound 10 µM, first compound 1 µM
  viability, T/C: 25.2%
Second compound 10 µM, first compound 3.16 µM
  viability, T/C: 0.4%
Second compound 10 µM, first compound 10 µM
  viability, T/C: 0.18%

## CC(C)n1nc(-c2ccc3oc(N)nc3c2)c2c(N)ncnc21
Compound 0.000316 µM
  viability, T/C: 112% [middle of 4 runs]
Compound 0.001 µM
  viability, T/C: 95.8% [middle of 4 runs]
Compound 0.00316 µM
  viability, T/C: 96.8% [middle of 4 runs]
Compound 0.01 µM
  viability, T/C: 73.3% [middle of 4 runs]
Compound 0.0316 µM
  viability, T/C: 48.5% [middle of 4 runs]
Compound 0.1 µM
  viability, T/C: 20.9% [middle of 4 runs]
Curve of compound
  IC50: 28.7 nM [middle of 4 runs]

Reference: PubChem BioAssay AID2060882 (Molecular Pharmacology Branch, DTP, NCI, 2025)
